# Measured values taken from patent US20100126386A1, “RADIATION-CURABLE COATING SUBSTANCES” (Basf Aktiengesellschaft, priority 2004, published 2010).
# Assay: Testing of the NIR sensitizers in photoinitiator mixtures (exposure of thin coats with halogen lamp)
# Settings: 0.5% by weight NIR sensitizer and 1.5% by weight boronate salt X in the paint base materials
# Experimental: The two aforementioned paint base materials were admixed with 0.5% by weight of each NIR sensitizer and 1.5% by weight of the boronate salt X^− and the mixtures were stirred intensively. Thin coats (coat thickness approximately 50 μm) were produced with the resulting mixtures between two glass plates, using spacer sheets. These coats were exposed using a 250 W halogen lamp (distance approximately 15 cm) for 1 minute.
row,Structure (SMILES),dissolution of the NIR sensitizer in the paint base material
1,CCN1/C(=C/C=C2\CCCC(/C=C/C3=[N+](CC)c4ccc(C(F)(F)F)cc4C3(C)C)=C2Cl)C(C)(C)c2cc(C(F)(F)F)ccc21 [Compound B11],not completely dissolved
2,CCN1/C(=C/C=C2\CCCC(/C=C/C3=[N+](CC)c4ccc(C(F)(F)F)cc4C3(C)C)=C2Cl)C(C)(C)c2cc(C(F)(F)F)ccc21 [Compound A11],fully dissolved
3,CCN1/C(=C/C=C2\CCCC(/C=C/C3=[N+](CC)c4ccc(C#N)cc4C3(C)C)=C2Cl)C(C)(C)c2cc(C#N)ccc21 [Compound B12],not completely dissolved
4,CN1\C(=C/C=C/C=C/C=C/C2=[N+](C)c3ccc(Cl)cc3C2(C)C)C(C)(C)c2cc(Cl)ccc21 [Compound B7],not completely dissolved
5,CN1\C(=C/C=C/C=C/C=C/C2=[N+](C)c3ccc(Cl)cc3C2(C)C)C(C)(C)c2cc(Cl)ccc21 [Compound A7],fully dissolved
6,CCN1/C(=C/C=C2\CCCC(/C=C/C3=[N+](CC)c4ccc(C#N)cc4C3(C)C)=C2Cl)C(C)(C)c2cc(C#N)ccc21 [Compound A12],fully dissolved
